Results: patent US20120022143A1, “RNA Interference Mediated Inhibition of the Thymic Stromal Lymphopoietin (TSLP) Gene Expression Using Short Interfering Nucliec Acid (siNA)” (Merck Sharp & Dohme Corp, priority 2009, published 2012)
[invAb] = inverted abasic unit; d = 2'-deoxy (DNA); m = 2'-O-methyl; r = 2'-OH (RNA); f = 2'-fluoro

Experiments:
mTSLP mRNA = assay: Initial screening: mouse TSLP mRNA knock-down by RT-PCR (Taqman) after RNAiMax transfection of NIH 3T3 cells; type: cell-based; conditions: 10 nM siNA, 24 hrs post-transfection, mean ± s.d., summary from 2 screens
Protocol: (§1) All cells were obtained from ATCC (Manassas, Va.) unless otherwise indicated. Cells were grown and transfected under standard conditions, which are detailed below for each cell line.
NIH 3T3 (murine; ATCC cat#CRL-1658): Cells were cultured at 37° C. in the presence of 5% CO2 and grown in Dulbecco's modified Eagle's medium (DMEM) with 4 mM L-glutamine adjusted to contain 1.5 g/L sodium bicarbonate and 4.5 g/L glucose and supplemented with fetal bovine serum at a final concentration of 10% and 100 μg/mL of streptomycin and 100 U/mL penicillin.
(§2) All transfections were performed using RNAiMax (Invitrogen Cat# 13778-150) as per the manufacturer's instructions.
(§3) Both human and murine cell lines were transfected in the similar fashion. Cells were plated in all wells of a tissue-culture treated, 96-well plate at a final count of 5,000 cells/well in […], of appropriate culture media. Cells were cultured for 24 hours after plating at 37° C. in the presence of 5% CO2.
(§4) After 24 hours, complexes containing siNA and RNAiMax were created as follows: A solution of RNAiMax diluted 33-fold in OPTI-MEM was prepared. In parallel, solutions of the siNAs for testing were prepared to a final concentration of 120 nM in OPTI-MEM. After incubation of RNAiMax/OPTI-MEM solution at room temperature for 5 min, an equal volume of the siNA solution and the RNAiMax solution were added together for each of the siNAs.
(§5) This solution was incubated at room temperature for 20 minutes. After incubation, 20 uL of the solution was added to each of the relevant wells.
(§6) The final concentration of siNA in each well was 10 nM and the final volume of RNAiMax in each well was 0.3 ul.
(§7) The time of incubation with the RNAiMax-siNA complexes was 24 hours, unless otherwise indicated. There was no change in media between the transfection and harvesting of the cells unless otherwise indicated.
(§8) RNA was extracted from a 96-well plate using the TaqMan® Gene Expression Cells-to-CT™ Kit (Cat# 4399002) with a modified protocol. Briefly, a 60 uL (1 plate) or 110 uL (2 plates) of the Lysis Solution with DNase I was dispensed into each well of the Lysis Buffer Plate (twin.tec full skirt plate). The lysis buffer and stop plates were stored at 4° C. until the cells were washed.
(§9) The plate was spun at 1100 rpm for 5 minutes. The culture medium was aspirated and discarded from the wells of the culture plate. The lysis was performed automatically using a BioMek FX instrument and method. After the Biomek method was completed, the lysis plate was incubated for 2 min. at room temperature. The lysis plate can be stored for 2 hours at 4° C., or at −20° C. or −80° C. for two months.
(§10) Each well of the reverse transcription plate required 10 uL of 2× reverse transcriptase Buffer, luL of 20× reverse transcription enzyme and 2 uL of nuclease-free water. The reverse transcription master mix was prepared by mixing 2× reverse transcription buffer, 20× reverse transcription enzyme mix, and nuclease-free water. 13 uL of the reverse transcription master mix was dispensed into each well of the reverse transcription plate (semi-skirted). A separate reverse transcription plate was prepared for each cell plate. The plate was loaded onto a Biomek NX or Biomek FX Dual-96 and the Biomek method was run. The program is programmed to automatically added 7 uL of lysate from the cell lysis procedure described above into each well of the reverse transcription plate. The plate is sealed and spun on a centrifuge (1000 rpm for 30 seconds) to settle the contents to the bottom of the reverse transcription plate. The plate is placed in a thermocycler at 37° C. for 60 min, 95° C. for 5 min, and 4° C. until the plate is removed from the thermocycler. Upon removal, if not used immediately, the plate was frozen at −20° C.
A series of probes and primers were used to detect the various mRNA transcripts of the genes of TSLP, IL-8 and GAPDH in human cell lines. […]

TSLP mRNA = assay: Initial screening: TSLP mRNA knock-down by RT-PCR (Taqman) after RNAiMax transfection of NHLF cells; type: cell-based; conditions: 10 nM siNA, human NHLF cells, 24 hrs post-transfection, relative to non-targeting control, normalized to GAPDH; mean ± s.d. from 2 experiments
Protocol: as §1
NHLF (human; Lonza cat# CC-2512): Cells were cultured at 37° C. in the presence of 5% CO2 and grown Fibroblast Basal Medium (Lonza cat# CC-3β2) supplemented growth factors (provided with the kit) and 100 μg/mL of streptomycin and 100 U/mL penicillin.
as §2, §3, §4, §5, §6, §7, §8, §9, §10
A series of probes and primers were used to detect the various mRNA transcripts of the genes of TSLP, IL-8 and GAPDH in human cell lines. All the Taqman probes and primers for the experiments here-in described were supplied as pre-validated sets by Applied Biosystems, Inc. (see Table 2). […]

| Substance | % KD mTSLP NIH3T3 (mTSLP mRNA) [%] | % KD TSLP (TSLP mRNA) |
| --- | --- | --- |
| 25451-DC: siNA duplex: sense B uAAuuAcAGAAGAGuuucu TTB (SEQ ID NO: 85), antisense AGAAAcucuucuGuAAuuAUU (SEQ ID NO: 86) (sense UAAUUACAGAAGAGUUUCUTT; antisense AGAAACUCUUCUGUAAUUAUU; sense: DNA at AGT, 2'-fluoro at CU, [invAb] at 5' end, 3' end, backbone not given here; antisense: sugars from the 5' end rrrmmfffffffmfmmffmmm, backbone not given here) | −37.4 ± 15.7 | 76 ± 16.4% |
| 25445-DC: siNA duplex: sense B GGGAuAGAAAAGuAGGuAA TTB (SEQ ID NO: 73), antisense UUAccuAcuuuucuAucccUU (SEQ ID NO: 74) (sense GGGAUAGAAAAGUAGGUAATT; antisense UUACCUACUUUUCUAUCCCUU; sense: DNA at AGT, 2'-fluoro at U, [invAb] at 5' end, 3' end, backbone not given here; antisense: sugars from the 5' end rrrfffmfffffffmffffmm, backbone not given here) | 36.1 ± 1.6 | −66 ± 42.7% |
| 25461-DC: siNA duplex: sense B GGGcuAAcuuAcAAcuuuu TTB (SEQ ID NO: 105), antisense AAAAGuuGuAAGuuAGcccUU (SEQ ID NO: 106) (sense GGGCUAACUUACAACUUUUTT; antisense AAAAGUUGUAAGUUAGCCCUU; sense: DNA at AGT, 2'-fluoro at CU, [invAb] at 5' end, 3' end, backbone not given here; antisense: sugars from the 5' end rrrmmffmfmmmffmmfffmm, backbone not given here) | −17.2 ± 3.6 | −48 ± 56.1% |
| 25466-DC: siNA duplex: sense B cAGAAGGGAuucuuAAcuu TTB (SEQ ID NO: 115), antisense AAGuuAAGAAucccuucuGUU (SEQ ID NO: 116) (sense CAGAAGGGAUUCUUAACUUTT; antisense AAGUUAAGAAUCCCUUCUGUU; sense: DNA at AGT, 2'-fluoro at CU, [invAb] at 5' end, 3' end, backbone not given here; antisense: sugars from the 5' end r3 f2 m5 f8 m3, backbone not given here) | −17.8 ± 28.5 | 38 ± 25^ % |
| 25457-DC: siNA duplex: sense B cucAGGAAAuGGcAcAAGA TTB (SEQ ID NO: 97), antisense UCUuGuGccAuuuccuGAGUU (SEQ ID NO: 98) (sense CUCAGGAAAUGGCACAAGATT; antisense UCUUGUGCCAUUUCCUGAGUU; sense: DNA at AGT, 2'-fluoro at CU, [invAb] at 5' end, 3' end, backbone not given here; antisense: sugars from the 5' end rrrfmfmffmffffffmmmmm, backbone not given here) | 81.5 ± 3.7 | 32 ± 2% |
| 25454-DC: siNA duplex: sense B AAuuuAuuuuGuGAAcAcu TTB (SEQ ID NO: 91), antisense AGUGuucAcAAAAuAAAuuUU (SEQ ID NO: 92) (sense AAUUUAUUUUGUGAACACUTT; antisense AGUGUUCACAAAAUAAAUUUU; sense: DNA at AGT, 2'-fluoro at CU, [invAb] at 5' end, 3' end, backbone not given here; antisense: sugars from the 5' end rrrmfffmfmmmmfmmmffmm, backbone not given here) | 30.7 ± 22.5 | 63 ± 16.9% |
| 25471-DC: siNA duplex: sense B AGuAGAAAAAAAAAuuAAA TTB (SEQ ID NO: 125), antisense UUUAAuuuuuuuuucuAcuUU (SEQ ID NO: 126) (sense AGUAGAAAAAAAAAUUAAATT; antisense UUUAAUUUUUUUUUCUACUUU; sense: sugars from the 5' end d2 f1 d11 f2 d5, [invAb] at 5' end, 3' end, backbone not given here; antisense: sugars from the 5' end rrrmmfffffffffffmffmm, backbone not given here) | 6.1 ± 9.6 | 22 ± 17.1% |
| 25456-DC: siNA duplex: sense B uccuGAAAAucGAGuAuuA TTB (SEQ ID NO: 95), antisense UAAuAcucGAuuuucAGGAUU (SEQ ID NO: 96) (sense UCCUGAAAAUCGAGUAUUATT; antisense UAAUACUCGAUUUUCAGGAUU; sense: DNA at AGT, 2'-fluoro at CU, [invAb] at 5' end, 3' end, backbone not given here; antisense: sugars from the 5' end rrrfmfffmmfffffmmmmmm, backbone not given here) | 53.3 ± 0.3 | 23 ± 1.1% |
| 25432-DC: siNA duplex: sense B cuGAGGAAAAucAGGAcAu TTB (SEQ ID NO: 47), antisense AUGuccuGAuuuuccucAGUU (SEQ ID NO: 48) (sense CUGAGGAAAAUCAGGACAUTT; antisense AUGUCCUGAUUUUCCUCAGUU; sense: DNA at AGT, 2'-fluoro at CU, [invAb] at 5' end, 3' end, backbone not given here; antisense: sugars from the 5' end r3 f4 m2 f8 m4, backbone not given here) | 37.1 ± 3.8 | 47 ± 26.2% |
| 25444-DC: siNA duplex: sense B GuGucAcAAuuAcAAGGAu TTB (SEQ ID NO: 71), antisense AUCcuuGuAAuuGuGAcAcUU (SEQ ID NO: 72) (sense GUGUCACAAUUACAAGGAUTT; antisense AUCCUUGUAAUUGUGACACUU; sense: DNA at AGT, 2'-fluoro at CU, [invAb] at 5' end, 3' end, backbone not given here; antisense: sugars from the 5' end rrrfffmfmmffmfmmfmfmm, backbone not given here) | 19.5 ± 19 | 80 ± 5.3% |
| 25459-DC: siNA duplex: sense B uGcccAGGcuAcccuGAAA TTB (SEQ ID NO: 101), antisense UUUcAGGGuAGccuGGGcAUU (SEQ ID NO: 102) (sense UGCCCAGGCUACCCUGAAATT; antisense UUUCAGGGUAGCCUGGGCAUU; sense: DNA at AGT, 2'-fluoro at CU, [invAb] at 5' end, 3' end, backbone not given here; antisense: sugars from the 5' end rrrfmmmmfmmfffmmmfmmm, backbone not given here) | 15.7 ± 1.6 | −6 ± 27^ % |
